Results taken from patent publication US20120039865A1, “IDENTIFICATION OF SORTILIN AS A NEURONAL RECEPTOR FOR THE FRONTOTEMPORAL DEMENTIA PROTEIN, PROGRANULIN” (Yale University, priority 2008, published 2012).

Tests used:
[1] = system: mouse E17 cortical neurons; experiment: AP-PGRN binding to mouse cortical neurons (wild type, sortilin +/- and -/-)
Description: (§1) Rat (Sprague-Dawley) cortical neurons were isolated from E18 embryos and cultured in vitro for 3-21 days. Cultures were maintained in Neurobasal-A medium supplemented with B27, GLUTAMAX™ (2 mM), sodium pyruvate (1 mM), penicillin, and streptomycin. The binding of 10 nM AP-PGRN or 10 nM AP was detected as a dark reaction product produced by alkaline phosphatase (AP). Binding was measured as follows. The AP tagged ligand (in NBA) was incubated with the cortical neurons for 1 hr at 4° C., washed three times with HBH buffer, fixed with formaldehyde, and after washing again with HBH the neurons were incubated in a 67° C. oven to inactivate the endogenous AP. The tagged AP was then visualized using AP substrate 5-bromo-4-chloro-3-indolyl phosphate/nitro blue tetrazolium, which results in a dark precipitate. […] The addition of 100 nM Flag-PGRN displaced 10 nM AP-PGRN (FIG. 1C, middle panel).
Binding was measured according to the methods described above by preincubating 100 nM PGRN with the cortical neurons for 1 hr and using a 5 nM AP-PGRN and 100 nM untagged PGRN mixture. […]
Gene-targeted sortilin −/− and +/− mice from Anders Nykjaer, M.D., Ph.D., Aarhus University, Aarhus, Denmark, were used to obtain cultures of cortical neurons. The binding of 2 nM AP-PGRN to cortical neurons isolated from sortilin −/− (FIG. 3B, left panel) and +/− (FIG. 3B, right panel) mice was evaluated. […]

[2] = system: Rat (Sprague-Dawley) cortical neurons; experiment: AP-tagged ligand binding to cultured rat cortical neurons
Description: as §1

[3] = biological target: T1, SorLA (Homo sapiens, UniProt Q92673); experiment: AP-PGRN binding to COS-7 cells expressing SorLA; conditions: 120 nM AP-PGRN
T1 construct: host or cells: COS-7
Text: (§2) The human SorLA expression vector was provided by Anders Nykjaer, M.D., Ph.D., Aarhus University, Aarhus, Denmark (Jacobsen, L., et al., J. Biol. Chem. 276:22788-22796 (2001); Gliemann, J., et al., Biochem J. 381:203-212 (2004); GenBank Accession No. U60975), and the mouse SorCS1 expression vector in pCMV-Sport6 was obtained from Open Biosystems (GenBank Accession No. BC007486). […] A fragment of PGRN, termed PGRN-E in the literature, binds to sortilin with the same affinity as does full length PGRN (data not shown).

[4] = biological target: T2, SorCS1 (Mus musculus, UniProt Q9JLC4); experiment: AP-PGRN binding to COS-7 cells expressing SorCS1; conditions: 120 nM AP-PGRN
T2 construct: host or cells: COS-7
T2 sequence (Q9JLC4 34-1167): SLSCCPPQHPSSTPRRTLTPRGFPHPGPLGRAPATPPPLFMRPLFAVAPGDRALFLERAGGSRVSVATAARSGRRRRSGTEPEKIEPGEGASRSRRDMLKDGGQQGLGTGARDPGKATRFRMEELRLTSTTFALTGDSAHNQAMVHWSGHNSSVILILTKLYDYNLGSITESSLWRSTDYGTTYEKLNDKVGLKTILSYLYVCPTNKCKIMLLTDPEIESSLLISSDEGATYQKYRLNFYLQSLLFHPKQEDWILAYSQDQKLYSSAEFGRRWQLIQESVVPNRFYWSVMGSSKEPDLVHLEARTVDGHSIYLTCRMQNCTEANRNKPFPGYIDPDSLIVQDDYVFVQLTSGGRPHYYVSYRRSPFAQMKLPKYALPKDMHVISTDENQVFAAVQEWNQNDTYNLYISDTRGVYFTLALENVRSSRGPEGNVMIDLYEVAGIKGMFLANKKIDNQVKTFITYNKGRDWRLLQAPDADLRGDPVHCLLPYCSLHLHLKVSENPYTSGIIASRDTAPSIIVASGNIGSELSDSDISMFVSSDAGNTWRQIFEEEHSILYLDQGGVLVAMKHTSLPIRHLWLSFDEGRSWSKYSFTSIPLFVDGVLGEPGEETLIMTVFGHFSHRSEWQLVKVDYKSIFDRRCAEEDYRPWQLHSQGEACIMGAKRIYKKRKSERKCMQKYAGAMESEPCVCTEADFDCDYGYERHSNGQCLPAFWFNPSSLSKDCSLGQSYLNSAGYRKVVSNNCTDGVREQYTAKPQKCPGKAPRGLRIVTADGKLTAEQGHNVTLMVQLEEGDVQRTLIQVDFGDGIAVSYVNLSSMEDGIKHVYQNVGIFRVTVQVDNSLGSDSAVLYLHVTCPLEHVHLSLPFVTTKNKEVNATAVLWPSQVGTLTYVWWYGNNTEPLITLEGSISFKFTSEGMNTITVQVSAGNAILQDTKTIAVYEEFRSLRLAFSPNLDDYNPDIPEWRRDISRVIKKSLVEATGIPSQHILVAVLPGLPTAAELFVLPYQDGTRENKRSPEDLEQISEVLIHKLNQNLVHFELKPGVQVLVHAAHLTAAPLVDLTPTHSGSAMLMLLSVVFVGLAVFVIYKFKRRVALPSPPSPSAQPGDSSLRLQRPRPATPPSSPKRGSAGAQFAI
Text: as §2

[5] = system: COS-7 cells transfected with empty vector; experiment: AP-PGRN binding to COS-7 cells transfected with empty vector; conditions: 20 nM AP-PGRN
Description: To determine the molecular nature of the neuronal binding site of PGRN, expression cloning experiments utilizing AP-PGRN as a tagged ligand were conducted. COS-7 (ATCC No. CRL-1651) cells were transfected with expression vectors containing mouse cDNAs using FUGENE® 6 according to manufacturer's specifications (Roche). An arrayed adult mouse brain cDNA library (OriGene) of 225,000 clones was screened in pools of 5,000 at a time, as well as a library consisting of 352 individual preparations of cDNAs encoding transmembrane proteins (GFC-transfection array panel, OriGene). The COS-7 cells that specifically bound AP-PGRN (5 nM) contained a single cDNA clone, which encoded a single-pass, membrane-spanning surface glycoprotein that supports high affinity AP-PGRN binding (FIG. 2A, upper-right panel). […] As in mouse cortical neurons, binding of 5 nM AP-PGRN to Sort-1 (PGRN-R) in COS-7 cells was displaceable by excess untagged PGRN (100 nM) and was saturable, with an apparent Kd of 6 nM (FIG. 2A, lower-right panel, and 2B). The binding affinity of AP-PRGN measured for Sort1-transfected COS-7 cells and for neurons was indistinguishable, with a Kd of 5-10 nM (FIG. 2B, 6 nM, and data not shown). In both cases, unlabeled 100 nM PGRN displaced binding (FIG. 2A, lower-right panel, and FIG. 3A, right panel).

[6] = biological target: T3, sortilin-1 (Sort1; PGRN-R) (Mus musculus, UniProt Q6PHU5); experiment: AP-PGRN binding to COS-7 cells transfected with Sort1 cDNA
T3 construct: host or cells: COS-7 (ATCC No. CRL-1651)
T3 sequence (Q6PHU5 74-825): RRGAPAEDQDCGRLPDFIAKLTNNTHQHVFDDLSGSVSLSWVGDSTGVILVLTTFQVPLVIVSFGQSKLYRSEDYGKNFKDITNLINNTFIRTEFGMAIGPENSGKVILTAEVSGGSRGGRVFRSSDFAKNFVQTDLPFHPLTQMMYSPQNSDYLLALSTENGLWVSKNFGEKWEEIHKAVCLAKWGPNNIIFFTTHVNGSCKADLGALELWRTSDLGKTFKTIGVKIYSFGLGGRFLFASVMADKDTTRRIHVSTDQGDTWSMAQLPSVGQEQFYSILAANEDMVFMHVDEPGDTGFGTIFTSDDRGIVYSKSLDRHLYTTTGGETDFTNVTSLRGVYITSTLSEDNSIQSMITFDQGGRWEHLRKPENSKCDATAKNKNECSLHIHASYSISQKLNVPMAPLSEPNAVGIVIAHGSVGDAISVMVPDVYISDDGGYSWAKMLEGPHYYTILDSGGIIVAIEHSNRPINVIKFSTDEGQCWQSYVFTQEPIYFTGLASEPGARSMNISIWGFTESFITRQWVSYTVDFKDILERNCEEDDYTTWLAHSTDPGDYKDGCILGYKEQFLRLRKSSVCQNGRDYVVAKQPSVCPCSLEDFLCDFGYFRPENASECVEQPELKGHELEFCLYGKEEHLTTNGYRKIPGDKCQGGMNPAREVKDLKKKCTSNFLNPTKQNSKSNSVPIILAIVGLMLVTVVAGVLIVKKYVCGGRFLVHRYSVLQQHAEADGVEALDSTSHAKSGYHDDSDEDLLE
Description: as §1
To determine the molecular nature of the neuronal binding site of PGRN, expression cloning experiments utilizing AP-PGRN as a tagged ligand were conducted. COS-7 (ATCC No. CRL-1651) cells were transfected with expression vectors containing mouse cDNAs using FUGENE® 6 according to manufacturer's specifications (Roche). […]

[7] = biological target: T4, purified ectodomain of Sort1 (amino acids 60-725 of the human sequence) (Homo sapiens, UniProt Q99523); experiment: Physical complex of purified proteins isolated by affinity chromatography; assay type: binding; conditions: data not shown
T4 sequence (Q99523 60-725): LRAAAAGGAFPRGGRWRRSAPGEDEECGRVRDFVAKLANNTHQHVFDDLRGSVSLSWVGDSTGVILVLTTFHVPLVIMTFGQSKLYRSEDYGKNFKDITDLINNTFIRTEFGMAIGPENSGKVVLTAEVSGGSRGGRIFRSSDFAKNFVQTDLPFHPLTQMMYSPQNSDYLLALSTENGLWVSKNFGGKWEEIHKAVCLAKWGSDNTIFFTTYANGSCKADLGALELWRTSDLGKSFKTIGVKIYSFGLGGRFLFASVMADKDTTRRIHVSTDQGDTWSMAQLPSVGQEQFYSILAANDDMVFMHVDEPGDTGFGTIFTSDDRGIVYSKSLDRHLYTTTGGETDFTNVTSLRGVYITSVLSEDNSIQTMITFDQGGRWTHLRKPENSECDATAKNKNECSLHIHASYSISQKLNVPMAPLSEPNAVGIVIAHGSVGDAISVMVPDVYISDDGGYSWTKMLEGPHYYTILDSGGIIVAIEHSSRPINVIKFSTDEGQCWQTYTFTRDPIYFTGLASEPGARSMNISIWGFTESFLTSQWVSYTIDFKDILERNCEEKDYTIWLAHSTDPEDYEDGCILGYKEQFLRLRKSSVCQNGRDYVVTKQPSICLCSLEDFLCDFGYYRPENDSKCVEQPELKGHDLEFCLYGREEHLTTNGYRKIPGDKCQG

T1 sequence (Q92673 82-2214): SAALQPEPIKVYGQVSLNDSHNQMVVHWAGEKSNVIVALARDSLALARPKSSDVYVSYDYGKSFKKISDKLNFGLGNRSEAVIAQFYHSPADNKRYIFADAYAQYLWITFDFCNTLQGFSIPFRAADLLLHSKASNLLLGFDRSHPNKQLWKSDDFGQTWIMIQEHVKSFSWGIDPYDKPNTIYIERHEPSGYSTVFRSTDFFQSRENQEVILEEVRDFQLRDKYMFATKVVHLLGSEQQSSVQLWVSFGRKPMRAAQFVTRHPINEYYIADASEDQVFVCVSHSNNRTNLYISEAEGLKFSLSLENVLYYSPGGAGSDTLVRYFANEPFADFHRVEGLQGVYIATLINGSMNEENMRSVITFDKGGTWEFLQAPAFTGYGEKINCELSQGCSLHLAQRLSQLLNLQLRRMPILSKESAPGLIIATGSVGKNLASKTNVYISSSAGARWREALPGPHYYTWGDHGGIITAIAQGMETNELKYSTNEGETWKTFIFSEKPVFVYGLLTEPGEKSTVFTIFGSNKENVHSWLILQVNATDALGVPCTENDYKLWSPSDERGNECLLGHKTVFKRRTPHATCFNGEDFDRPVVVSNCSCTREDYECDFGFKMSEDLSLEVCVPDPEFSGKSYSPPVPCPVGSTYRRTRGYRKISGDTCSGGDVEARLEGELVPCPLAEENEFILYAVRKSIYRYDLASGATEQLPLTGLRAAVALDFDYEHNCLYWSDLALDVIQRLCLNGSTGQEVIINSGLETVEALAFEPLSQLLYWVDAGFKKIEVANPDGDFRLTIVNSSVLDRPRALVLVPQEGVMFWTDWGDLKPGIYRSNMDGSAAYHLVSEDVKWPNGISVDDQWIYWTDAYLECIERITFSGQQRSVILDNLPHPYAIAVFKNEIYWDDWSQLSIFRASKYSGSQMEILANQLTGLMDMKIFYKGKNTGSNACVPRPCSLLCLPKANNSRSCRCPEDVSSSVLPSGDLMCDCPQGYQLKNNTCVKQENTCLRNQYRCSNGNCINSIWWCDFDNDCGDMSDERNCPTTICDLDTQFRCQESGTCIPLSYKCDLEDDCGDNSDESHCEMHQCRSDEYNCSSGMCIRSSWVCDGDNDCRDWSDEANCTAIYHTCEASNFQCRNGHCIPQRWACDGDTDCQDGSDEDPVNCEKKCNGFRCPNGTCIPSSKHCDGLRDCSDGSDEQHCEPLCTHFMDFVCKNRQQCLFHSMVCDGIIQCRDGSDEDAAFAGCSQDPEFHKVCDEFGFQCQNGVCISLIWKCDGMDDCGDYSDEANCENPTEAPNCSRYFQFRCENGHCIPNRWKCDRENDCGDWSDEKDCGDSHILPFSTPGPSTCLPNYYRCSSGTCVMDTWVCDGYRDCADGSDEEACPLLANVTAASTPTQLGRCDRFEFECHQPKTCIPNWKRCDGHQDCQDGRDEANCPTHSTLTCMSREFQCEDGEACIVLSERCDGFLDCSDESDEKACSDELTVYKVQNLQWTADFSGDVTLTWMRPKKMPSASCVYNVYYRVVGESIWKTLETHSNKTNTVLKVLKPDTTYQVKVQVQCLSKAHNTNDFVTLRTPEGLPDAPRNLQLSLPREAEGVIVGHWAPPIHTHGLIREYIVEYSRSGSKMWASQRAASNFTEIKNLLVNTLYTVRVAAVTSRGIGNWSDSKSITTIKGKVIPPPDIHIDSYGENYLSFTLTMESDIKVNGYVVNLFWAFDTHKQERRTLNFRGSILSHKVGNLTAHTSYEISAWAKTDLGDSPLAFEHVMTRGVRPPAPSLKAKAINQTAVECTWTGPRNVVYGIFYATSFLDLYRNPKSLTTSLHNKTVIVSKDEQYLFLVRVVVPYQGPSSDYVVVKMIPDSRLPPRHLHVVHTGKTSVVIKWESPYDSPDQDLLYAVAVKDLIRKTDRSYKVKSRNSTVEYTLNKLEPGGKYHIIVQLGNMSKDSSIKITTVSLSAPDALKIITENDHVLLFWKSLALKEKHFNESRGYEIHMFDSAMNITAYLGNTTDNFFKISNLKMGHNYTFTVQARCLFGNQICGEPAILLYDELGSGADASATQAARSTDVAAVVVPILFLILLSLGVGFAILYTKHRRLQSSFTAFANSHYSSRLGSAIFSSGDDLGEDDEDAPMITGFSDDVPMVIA

AP-PGRN: alkaline-phosphatase (AP) tagged human progranulin fusion protein produced in HEK293T cells
AP-PGRN binding in sortilin -/- cortical neurons ([1]; 2 nM AP-PGRN, neurons from sortilin -/- vs +/- mice): 30 % of control values | Kd ([1]; neurons, species not stated, data not shown, read-out: binding affinity Kd for neurons): 5 to 10 nM | binding to cultured cortical neurons (dark AP reaction product) ([2]; 10 nM AP-tagged ligand, 1 hr at 4° C.): specifically and discreetly bound | affinity for SorLA [3]: no affinity | affinity for SorCS1 [4]: no affinity | binding to empty-vector COS-7 cells [5]: did not bind | binding to Sort1-transfected COS-7 cells ([6]; 20 nM ligand): bound | Kd ([6]; read-out: binding affinity Kd for Sort1-transfected COS-7 cells): 5 to 10 nM

Flag-PGRN: FLAG-tagged PGRN produced by HEK293T cell transfection, purified by anti-FLAG affinity gel
complex formation with Sort1 ectodomain [7]: formed a physical complex | displacement of AP-PGRN binding ([2]; 100 nM competitor against 10 nM AP-PGRN): displaced
